# Measurements taken from PMC9456400 (International Journal of Molecular Sciences, 2022).
# Columns and labels:
# Huh-7 cells = experiment: UHPLC-ESI-QTOF-MS/MS lipidomics; assay type: cell-based, human
# Description: We then questioned whether lorlatinib used at concentrations efficacious against ALK-rearranged lung cancer cells but non-toxic to ALK-negative cells could promote substantial lipidome changes in Huh-7 cells (Figure 1B; Table 1). Accordingly, […], and the lipidome was characterized in a semi-targeted approach using a UHPLC-ESI-QTOF-MS/MS method, in which we matched mass spectra with commercial standards (SPLAH mix), databases such as METLIN-PCDL and Lipid MAPS (accessed on 1 July 2022), as well as corroboration of tentative lipid species upon obtaining their MS/MS spectrum. Representative chromatograms of lipidomic analyses in Huh-7 cells can be found in Figure S1.
# Lipid extraction, preparation of external calibration curves, and quality control approaches were carried out as described. Samples (2 μL) were injected directly into a 1290 Infinity UHPLC system coupled with a dual Agilent jet stream ESI source to a 6550 QTOF-MS instrument (Agilent Technologies, Santa Clara, CA, USA). UHPLC-ESI-QTOF-MS conditions, data analysis and indirect quantification of selected lipid species using MassHunter Qualitative Analysis B.07.00 software (Agilent Technologies), and corroboration of the tentative characterization of compound match entities using the Lipid Maps database (www.lipidmaps.org, accessed on 1 July 2022) and targeted MS/MS acquisition on LC-QTOF-MS instrument, have been previously described in detail.
# Differentially expressed lipid species from untargeted lipidomic data were analyzed by generating volcano plots indicating statistical significance versus magnitude of fold-change for each lipid species (cutoff of Benjamini–Hochberg corrected p-value < 0.05 and log2 fold-change > 1 or […]).
# [1] = tested on: H3122 NSCLC cell line (ALK rearrangement variant 1); experiment: MTT cell viability assay; conditions: read-out: IC50 (cell viability)
# Description: Cell viability effects of lorlatinib were determined using the colorimetric MTT (3-4,5-dimethylthiazol-2-yl-2,5-diphenyl-tetrazolium bromide) reduction assay. Dose–response curves to graded concentrations of lorlatinib were plotted as a percentage of the control cell absorbance, which was obtained from control cells containing the vehicle (DMSO v/v) processed simultaneously. For each treatment, cell viability was evaluated using the following equation: (OD570 of the treated sample/OD570 of the untreated sample) × 100.
# [2] = cited from earlier work
# [3] = Huh-7 cells, SBN 100 µmol/L, lorlatinib 1 µmol/L, median
# [4] = single 100 mg oral dose ref 46, 47
smiles,measurement,setting,value
"C[C@H]1Oc2cc(cnc2N)-c2c(nn(C)c2C#N)CN(C)C(=O)c2ccc(F)cc21 [lorlatinib, (10R)-7-amino-12-fluoro-2,10,16-trimethyl-15-oxo-10,15,16,17-tetrahydro-2H-8,4-(metheno)pyrazolo [4,3-h][2,5,11]-benzoxadiazacyclotetradecine-3-carbonitrile]","Change of lipid species, single agent","Huh-7 cells; Huh-7, 48 h, lorlatinib 1 μmol/L, silibinin 100 μmol/L","significantly increase several species of ChoE, numerous molecular species of long-chain TG, and several DG, LPC, and PC species"
same,Relative concentration of ChoE 16:0,Huh-7 cells; [3],11.335 µmol/mg protein
same,Relative concentration of ChoE 16:1,Huh-7 cells; [3],25.820 µmol/mg protein
same,Relative concentration of ChoE 17:0,Huh-7 cells; [3],2.170 µmol/mg protein
same,Relative concentration of ChoE 17:1,Huh-7 cells; [3],5.670 µmol/mg protein
same,Relative concentration of ChoE 18:0,Huh-7 cells; [3],4.365 µmol/mg protein
same,Relative concentration of ChoE 18:2,Huh-7 cells; [3],33.284 µmol/mg protein
same,Relative concentration of ChoE 18:3,Huh-7 cells; [3],12.818 µmol/mg protein
same,Relative concentration of ChoE 20:2,Huh-7 cells; [3],6.459 µmol/mg protein
same,Relative concentration of ChoE 20:3,Huh-7 cells; [3],42.167 µmol/mg protein
same,Relative concentration of ChoE 20:4,Huh-7 cells; [3],107.967 µmol/mg protein
same,Relative concentration of ChoE 20:5,Huh-7 cells; [3],68.788 µmol/mg protein
same,Relative concentration of ChoE 22:4,Huh-7 cells; [3],27.538 µmol/mg protein
same,Relative concentration of ChoE 22:5,Huh-7 cells; [3],59.058 µmol/mg protein
same,Relative concentration of DG 34:1,Huh-7 cells; [3],16.654 µmol/mg protein
same,Relative concentration of DG 34:2,Huh-7 cells; [3],17.722 µmol/mg protein
same,Relative concentration of DG 34:3,Huh-7 cells; [3],2.474 µmol/mg protein
same,Relative concentration of DG 36:0,Huh-7 cells; [3],2.250 µmol/mg protein
same,Relative concentration of DG 36:1,Huh-7 cells; [3],8.885 µmol/mg protein
same,Relative concentration of DG 36:2,Huh-7 cells; [3],20.022 µmol/mg protein
same,Relative concentration of DG 36:3,Huh-7 cells; [3],2.186 µmol/mg protein
same,Relative concentration of DG 36:4,Huh-7 cells; [3],4.172 µmol/mg protein
same,Relative concentration of DG 40:4,Huh-7 cells; [3],9.158 µmol/mg protein
same,Relative concentration of LPC 15:0,Huh-7 cells; [3],0.094 µmol/mg protein
same,Relative concentration of LPC 16:0,Huh-7 cells; [3],3.165 µmol/mg protein
same,Relative concentration of LPC 16: e,Huh-7 cells; [3],0.023 µmol/mg protein
same,Relative concentration of LPC 18:0,Huh-7 cells; [3],1.911 µmol/mg protein
same,Relative concentration of LPC 18:0e,Huh-7 cells; [3],0.014 µmol/mg protein
same,Relative concentration of LPC 18:1,Huh-7 cells; [3],1.630 µmol/mg protein
same,Relative concentration of LPC 18:2,Huh-7 cells; [3],0.188 µmol/mg protein
same,Relative concentration of LPC 20:0,Huh-7 cells; [3],0.047 µmol/mg protein
same,Relative concentration of LPC 20:3,Huh-7 cells; [3],0.080 µmol/mg protein
same,Relative concentration of PC 30:0,Huh-7 cells; [3],6.654 µmol/mg protein
same,Relative concentration of PC 31:0,Huh-7 cells; [3],3.243 µmol/mg protein
same,Relative concentration of PC 32:0,Huh-7 cells; [3],20.672 µmol/mg protein
same,Relative concentration of PC 32:1,Huh-7 cells; [3],56.675 µmol/mg protein
same,Relative concentration of PC 32:1e,Huh-7 cells; [3],0.780 µmol/mg protein
same,Relative concentration of PC 32:2,Huh-7 cells; [3],7.800 µmol/mg protein
same,Relative concentration of PC 33:0,Huh-7 cells; [3],3.109 µmol/mg protein
same,Relative concentration of PC 33:1,Huh-7 cells; [3],12.338 µmol/mg protein
same,Relative concentration of PC 33:2,Huh-7 cells; [3],1.113 µmol/mg protein
same,Relative concentration of PC 34:0,Huh-7 cells; [3],5.917 µmol/mg protein
same,Relative concentration of PC 34:1,Huh-7 cells; [3],93.696 µmol/mg protein
same,Relative concentration of PC 34:1e,Huh-7 cells; [3],0.856 µmol/mg protein
same,Relative concentration of PC 34:2,Huh-7 cells; [3],49.219 µmol/mg protein
same,Relative concentration of PC 34:2e,Huh-7 cells; [3],0.709 µmol/mg protein
same,Relative concentration of PC 34:3,Huh-7 cells; [3],5.578 µmol/mg protein
same,Relative concentration of PC 34:4,Huh-7 cells; [3],0.930 µmol/mg protein
same,Relative concentration of PC 35:1,Huh-7 cells; [3],6.392 µmol/mg protein
same,Relative concentration of PC 35:2,Huh-7 cells; [3],6.219 µmol/mg protein
same,Relative concentration of PC 35:4,Huh-7 cells; [3],1.817 µmol/mg protein
same,Relative concentration of PC 36:0,Huh-7 cells; [3],0.209 µmol/mg protein
same,Relative concentration of PC 36:1,Huh-7 cells; [3],24.222 µmol/mg protein
same,Relative concentration of PC 36:2,Huh-7 cells; [3],46.840 µmol/mg protein
same,Relative concentration of PC 36:2e,Huh-7 cells; [3],0.101 µmol/mg protein
same,Relative concentration of PC 36:3,Huh-7 cells; [3],20.945 µmol/mg protein
same,Relative concentration of PC 36:4,Huh-7 cells; [3],26.422 µmol/mg protein
same,Relative concentration of PC 36:5,Huh-7 cells; [3],6.790 µmol/mg protein
same,Relative concentration of PC 36:5e,Huh-7 cells; [3],0.749 µmol/mg protein
same,Relative concentration of PC 38:2,Huh-7 cells; [3],1.747 µmol/mg protein
same,Relative concentration of PC 38:3,Huh-7 cells; [3],2.875 µmol/mg protein
same,Relative concentration of PC 38:4,Huh-7 cells; [3],12.355 µmol/mg protein
same,Relative concentration of PC 38:5,Huh-7 cells; [3],12.838 µmol/mg protein
same,Relative concentration of PC 38:5e,Huh-7 cells; [3],0.193 µmol/mg protein
same,Relative concentration of PC 38:6,Huh-7 cells; [3],9.312 µmol/mg protein
same,Relative concentration of PC 38:6e,Huh-7 cells; [3],0.353 µmol/mg protein
same,Relative concentration of PC 40:4,Huh-7 cells; [3],0.298 µmol/mg protein
same,Relative concentration of PC 40:4e,Huh-7 cells; [3],0.087 µmol/mg protein
same,Relative concentration of PC 40:5,Huh-7 cells; [3],1.883 µmol/mg protein
same,Relative concentration of PC 40:6,Huh-7 cells; [3],2.981 µmol/mg protein
same,Relative concentration of PC 42:4e,Huh-7 cells; [3],0.056 µmol/mg protein
same,Relative concentration of PC 42:5e,Huh-7 cells; [3],0.118 µmol/mg protein
same,Relative concentration of PE 32:0,Huh-7 cells; [3],0.231 µmol/mg protein
same,Relative concentration of PE 36:4,Huh-7 cells; [3],15.311 µmol/mg protein
same,Relative concentration of PE 36:5e,Huh-7 cells; [3],1.339 µmol/mg protein
same,Relative concentration of PE 38:5e,Huh-7 cells; [3],0.649 µmol/mg protein
same,Relative concentration of SM 32:0,Huh-7 cells; [3],0.350 µmol/mg protein
same,Relative concentration of SM 32:1,Huh-7 cells; [3],2.087 µmol/mg protein
same,Relative concentration of SM 32:2,Huh-7 cells; [3],0.032 µmol/mg protein
same,Relative concentration of SM 33:1,Huh-7 cells; [3],1.877 µmol/mg protein
same,Relative concentration of SM 34:1,Huh-7 cells; [3],22.397 µmol/mg protein
same,Relative concentration of SM 34:2,Huh-7 cells; [3],1.973 µmol/mg protein
same,Relative concentration of SM 35:0,Huh-7 cells; [3],1.702 µmol/mg protein
same,Relative concentration of SM 35:1,Huh-7 cells; [3],0.803 µmol/mg protein
same,Relative concentration of SM 36:0,Huh-7 cells; [3],0.297 µmol/mg protein
same,Relative concentration of SM 36:1,Huh-7 cells; [3],1.764 µmol/mg protein
same,Relative concentration of SM 36:2,Huh-7 cells; [3],0.702 µmol/mg protein
same,Relative concentration of SM 38:1,Huh-7 cells; [3],0.595 µmol/mg protein
same,Relative concentration of SM 38:2,Huh-7 cells; [3],0.151 µmol/mg protein
same,Relative concentration of SM 39:1,Huh-7 cells; [3],0.210 µmol/mg protein
same,Relative concentration of SM 40:0,Huh-7 cells; [3],0.286 µmol/mg protein
same,Relative concentration of SM 40:1,Huh-7 cells; [3],1.575 µmol/mg protein
same,Relative concentration of SM 40:2,Huh-7 cells; [3],0.891 µmol/mg protein
same,Relative concentration of SM 41:1,Huh-7 cells; [3],0.637 µmol/mg protein
same,Relative concentration of SM 41:2,Huh-7 cells; [3],0.065 µmol/mg protein
same,Relative concentration of SM 42:1,Huh-7 cells; [3],2.064 µmol/mg protein
same,Relative concentration of SM 42:2,Huh-7 cells; [3],3.149 µmol/mg protein
same,Relative concentration of SM 42:3,Huh-7 cells; [3],0.805 µmol/mg protein
same,Relative concentration of SM 43:1,Huh-7 cells; [3],0.128 µmol/mg protein
same,Relative concentration of SM 43:2,Huh-7 cells; [3],0.358 µmol/mg protein
same,Relative concentration of TG 46:0,Huh-7 cells; [3],1.549 µmol/mg protein
same,Relative concentration of TG 46:1,Huh-7 cells; [3],2.111 µmol/mg protein
same,Relative concentration of TG 46:2,Huh-7 cells; [3],1.025 µmol/mg protein
same,Relative concentration of TG 48:0,Huh-7 cells; [3],2.372 µmol/mg protein
same,Relative concentration of TG 48:1,Huh-7 cells; [3],5.318 µmol/mg protein
same,Relative concentration of TG 48:2,Huh-7 cells; [3],4.451 µmol/mg protein
same,Relative concentration of TG 48:3,Huh-7 cells; [3],1.146 µmol/mg protein
same,Relative concentration of TG 50:0,Huh-7 cells; [3],1.142 µmol/mg protein
same,Relative concentration of TG 50:1,Huh-7 cells; [3],9.399 µmol/mg protein
same,Relative concentration of TG 50:2,Huh-7 cells; [3],11.302 µmol/mg protein
same,Relative concentration of TG 50:3,Huh-7 cells; [3],4.462 µmol/mg protein
same,Relative concentration of TG 50:4,Huh-7 cells; [3],1.054 µmol/mg protein
same,Relative concentration of TG 51:2,Huh-7 cells; [3],2.969 µmol/mg protein
same,Relative concentration of TG 52:1,Huh-7 cells; [3],3.455 µmol/mg protein
same,Relative concentration of TG 52:2,Huh-7 cells; [3],16.188 µmol/mg protein
same,Relative concentration of TG 52:3,Huh-7 cells; [3],12.354 µmol/mg protein
same,Relative concentration of TG 52:4,Huh-7 cells; [3],3.787 µmol/mg protein
same,Relative concentration of TG 52:5,Huh-7 cells; [3],1.312 µmol/mg protein
same,Relative concentration of TG 52:6,Huh-7 cells; [3],0.708 µmol/mg protein
same,Relative concentration of TG 54:2,Huh-7 cells; [3],3.515 µmol/mg protein
same,Relative concentration of TG 54:3,Huh-7 cells; [3],11.096 µmol/mg protein
same,Relative concentration of TG 54:4,Huh-7 cells; [3],6.556 µmol/mg protein
same,Relative concentration of TG 54:5,Huh-7 cells; [3],4.411 µmol/mg protein
same,IC50,[1],3 ± 0.2 nM
same,Fraction metabolized during first-pass hepatic or pre-systemic metabolism,"[2]; human, in vivo",12%
same,Hepatic extraction ratio,"[2]; human, in vivo",< 30%
same,Peak plasma concentration,[2]; [4],> 2 µmol/L
same,Time to peak plasma concentration,[2]; [4],0.5 to 4 h
